ChEMBL document CHEMBL1137870, “Synthesis and evaluation of 2-amino-8-alkoxy quinolines as MCHr1 antagonists. Part 2” (Bioorg Med Chem Lett, 2004)

Assays:
[1] = biological target: T1, Melanin-concentrating hormone receptor 1 (Homo sapiens, UniProt Q99705); experiment: Concentration required to inhibit 50% of melanin-concentrating hormone induced [Ca2+] flux in IMR-32 cells measured by using a fluorometric imaging plate reader; format: functional, cell-based
[2] = biological target: T1, Melanin-concentrating hormone receptor 1; experiment: Concentration required to inhibit binding of [125I]-MCH radioligand to human Melanin-concentrating hormone receptor 1 in IMR-32 I3.4.2 cell membranes
[3] = Area under curve in plasma was determined at the peroral dose of 10 mg/kg in diet-induced obese (DIO) mice; format: ADME, organism-based; set-up: dose 10 mg/kg, route oral; details: mouse, in vivo, po
[4] = Area under curve in brain was determined at the peroral dose of 10 mg/kg in diet-induced obese (DIO) mice; format: ADME, organism-based; set-up: dose 10 mg/kg, route oral; details: mouse, in vivo, po
[5] = Half life in plasma was determined at the peroral dose of 10 mg/kg in diet-induced obese (DIO) mice; format: ADME, organism-based; set-up: dose 10 mg/kg, route oral; details: mouse, po
[6] = Half life in brain was determined at the peroral dose of 10 mg/kg in diet-induced obese (DIO) mice; format: ADME, organism-based; set-up: dose 10 mg/kg, route oral; details: mouse, po
[7] = Brain/plasma ratio was determined at peroral dose of 10 mg/kg in diet-induced obese (DIO) mice; format: ADME, organism-based; set-up: dose 10 mg/kg, route oral; details: mouse, brain and plasma, po

T1 sequence (Q99705 whole entry): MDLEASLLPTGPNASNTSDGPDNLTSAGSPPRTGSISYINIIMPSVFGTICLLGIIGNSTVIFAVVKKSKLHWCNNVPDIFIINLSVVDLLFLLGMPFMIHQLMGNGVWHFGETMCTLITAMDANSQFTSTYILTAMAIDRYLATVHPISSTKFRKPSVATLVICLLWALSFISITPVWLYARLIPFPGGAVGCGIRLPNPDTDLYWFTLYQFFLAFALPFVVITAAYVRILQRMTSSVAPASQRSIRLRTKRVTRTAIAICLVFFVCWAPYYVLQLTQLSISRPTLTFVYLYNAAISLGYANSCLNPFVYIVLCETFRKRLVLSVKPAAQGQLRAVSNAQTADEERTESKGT

| IC50 [1] [nM] | IC50 [2] [nM] | other results | Structure (SMILES) |
| --- | --- | --- | --- |
| 3 | 0.4 |  | Nc1ccc2cccc(OCCCNC(=O)c3cccc(Cl)c3)c2n1 |
| 40 | 2 |  | N#Cc1cccc(C(=O)NCCCOc2cccc3ccc(NCc4ccc(-c5ccc(Cl)cc5)o4)nc23)c1 |
| 600 | 1 |  | COc1cccc(CNCC(C)Oc2cccc3ccc(N)nc23)c1 (stereo not given) |
|  | 50 |  | CC(CC(C)(C)C)Oc1cccc2ccc(N)nc12 (stereo not given) |
| 110 | 5 |  | Nc1ccc2cccc(OCCCNC(=O)Nc3ccc4c(c3)OCO4)c2n1 |
| 340 | 100 |  | CC(CNCc1ccccc1)Oc1cccc2ccc(N)nc12 (stereo not given) |
| 70 | 7 |  | Nc1ccc2cccc(OCCCNC(=O)c3ccc4c(c3)OCO4)c2n1 |
| 30 | 2 |  | COc1cccc(C(=O)NCCCOc2cccc3ccc(N)nc23)c1 |
| 8 | 0.9 |  | Nc1ccc2cccc(OCCCNC(=O)Nc3cccc(Cl)c3)c2n1 |
| 290 | 40 |  | CC(CN1CCCCC1)Oc1cccc2ccc(N)nc12 (stereo not given) |
| 7 | 3 | AUC [3]: 328 ng·h/mL; AUC [4]: 11 ng·h/mL; half-life [5]: 1.4 h; half-life [6]: 1.6 h; Kp [7]: 0.03 | N#Cc1cccc(C(=O)NCCCOc2cccc3ccc(N)nc23)c1 |
| 580 | 50 |  | CC(CNC1CC1)Oc1cccc2ccc(N)nc12 (stereo not given) |
| 30 | 30 |  | CC(CNC1CCCC1)Oc1cccc2ccc(N)nc12 (stereo not given) |
| 190 | 80 |  | CC(CN1CCOCC1)Oc1cccc2ccc(N)nc12 (stereo not given) |
| 360 | 70 |  | CC(CN1CCCC1)Oc1cccc2ccc(N)nc12 (stereo not given) |
| 630 | 10 |  | CC(C)c1ccc(CNCCCOc2cccc3ccc(N)nc23)cc1 |
| 150 | 10 |  | CC(CNCc1ccsc1)Oc1cccc2ccc(N)nc12 (stereo not given) |
| 130 | 30 |  | CC(CNCc1ccc2c(c1)OCO2)Oc1cccc2ccc(N)nc12 (stereo not given) |

| IC50 [1] [nM] | IC50 [2] [nM] | other results | Structure (SMILES) |
| --- | --- | --- | --- |
| 100 | 1 |  | Nc1ccc2cccc(OCCCNc3ccc4c(c3)OC(F)(F)O4)c2n1 |
| 270 | 10 |  | Nc1ccc2cccc(OCCCNc3ccc4c(c3)OCO4)c2n1 |
| 140 | 60 |  | CC(C)c1ccc(C(=O)NCCCOc2cccc3ccc(N)nc23)cc1 |
| 100 | 10 |  | CC(CNCc1ccoc1)Oc1cccc2ccc(N)nc12 (stereo not given) |
| 3110 | 50 |  | O=C(NCCCOc1cccc2ccc(NCc3ccc(-c4ccccc4Cl)o3)nc12)Nc1ccc2c(c1)OCO2 |
| 8960 | 520 |  | Nc1ccc2cccc(OCCNCc3ccc4c(c3)OCO4)c2n1 |
| 20 | 1 |  | O=C(NCCCOc1cccc2ccc(NCc3ccc(-c4ccccc4Cl)o3)nc12)c1cccc(Cl)c1 |
| > 10000 | 660 |  | Nc1ccc2cccc(OCCNCc3ccoc3)c2n1 |
| 10 | 5 |  | N#Cc1cccc(C(=O)NCCCOc2cccc3ccc(NCc4ccc(-c5cccc(Cl)c5)o4)nc23)c1 |
| 220 | 5 | AUC [3]: 9960 ng·h/mL; AUC [4]: 9520 ng·h/mL; half-life [5]: 8.9 h; Kp [7]: 0.96 | Nc1ccc2cccc(OCCCNCc3ccc(Cl)c(C(F)(F)F)c3)c2n1 |
| 1120 | 10 |  | CCCNc1ccc2cccc(OCCCNC(=O)c3cccc(Cl)c3)c2n1 |
| 8180 | 530 |  | CC(CNc1ccc2[nH]ncc2c1)Oc1cccc2ccc(N)nc12 (stereo not given) |
| 20 | 6 | AUC [3]: 424 ng·h/mL; AUC [4]: 68 ng·h/mL; half-life [5]: 1.2 h; half-life [6]: 0.6 h; Kp [7]: 0.2 | Nc1ccc2cccc(OCCCNC(=O)c3cccc(OC(F)(F)F)c3)c2n1 |
| 2170 | 210 |  | CC(CNC1CCCCC1)Oc1cccc2ccc(N)nc12 (stereo not given) |
| 460 | 80 |  | CC(CNCC1CC1)Oc1cccc2ccc(N)nc12 (stereo not given) |
| 100 | 100 |  | CC(CNCC1CCCC1)Oc1cccc2ccc(N)nc12 (stereo not given) |
| 872 | 85 |  | CN(C)CC1CCc2cc(NC(=O)c3ccc(-c4ccc(F)cc4)cc3)ccc2C1 (single isomer, unassigned; (-)) |
| 15 | 3 |  | COCC1=C(C(=O)OC)[C@H](c2ccc(F)c(F)c2)N(C(=O)NCCCN2CCC(c3cccc(NC(C)=O)c3)CC2)C(=O)N1 [SNAP-7941] |
